In PubChem BioAssay (NCI) one finds TGI data, which are given here for one molecule.

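How tested: cells in 96-well plates exposed to compound for 48 hours at five concentrations. TGI denotes the concentration required for complete inhibition of growth.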

Holding throughout (assay): NCI anticancer screen, dose series, 48 h
Experiment [1] has as its system SK-MEL-2 melanoma.
Experiment [2] concerns HS 578T breast.
Experiment [3] relates to HCC-2998 colon.
The subject of experiment [4] is A498 renal.
For experiment [5], the system named is NCI/ADR-RES ovarian.
Experiment [6] has as its system TK-10 renal.
Experiment [7] deals with UO-31 renal.
Experiment [8] deals with SW-620 colon.
Experiment [9] has as its system NCI-H522 lung.
For experiment [10], the system named is MDA-MB-435.

For the molecule `CC[C@@]1(O)C(=O)OCc2c1cc1n(c2=O)Cc2c-1nc1ccccc1c2/C=N\NC(=O)C(N)CS` (stereo not given in full), the TGI is above 100 µM in [1]; above 100 µM in [2]; above 100 µM in experiment [3]; 23 µM in experiment [4]; above 45.2 µM in experiment [5]; above 100 µM in experiment [6]. The TGI is 14.7 µM in experiment [7], above 100 µM in experiment [8], 25.9 µM in experiment [9] and above 100 µM in experiment [10].
